From patent publication US20170248582A1, “Mixed Spheroids of Melanocytes and Keratinocytes” (Syntivia, priority 2014, published 2017)
“Also recorded” adds a separate entry of the source.

Columns and labels:
[1] = test system: mixed spheroids of keratinocytes and melanocytes; assay: Assay of melanin on mixed spheroids after treatment (photometry, melanin / total proteins); format: cell-based, Human
Method: The cells were lysed in a solution of 1M NaOH+10% DMSO and incubated 30 min at 90° C. A standard range was prepared with synthetic melanin and read-out performed at a wavelength of 405 nm. Assay of total proteins was performed on the lysate of melanin assay using the microBCA kit in accordance with the supplier's instructions. A standard range was prepared with BSA and read-out was performed at a wavelength of 605 nm. The results are expressed in the form of a ratio between the assay of melanin and assay of total proteins. 24 h after seeding, the mixed spheroids of the invention such as prepared in Example 1, and after removal of Matrigel® by washing with PBS, were treated with 300 μM IBMX or 500 μM PTU for 5 days with renewal of treatment at 4 days. The melanin was assayed as explained in Example 3.

[2] = test system: genes MITF, TYR, TYRP1 and PMEL in mixed spheroids of keratinocytes and melanocytes; assay: Quantification of pigmentation gene expression by quantitative PCR in mixed spheroids; format: cell-based, Human; conditions: 300 μM IBMX for 24 h, normalised to GAPDH, vs non-treated control
Method: 48 h after their seeding the mixed spheroids of the invention such as prepared in Example 1, and after removal of Matrigel® by washing with PBS, were treated with 300 μM IBMX for 24 h. The spheroids were collected and washed with PBS after 24 h treatment with IBMX. The RNAs were extracted and reverse-transcribed to cDNA. Quantitative PCR was then performed to quantify the expression of the genes MITF, TYR, TYRP1 and PMEL. The expression of these genes was normalised by expression of the GAPDH housekeeping gene and compared with the non-treated control.

For `CC(C)Cn1c(=O)n(C)c(=O)c2[nH]cnc21` [IBMX, 3-isobutyl-1-methylxanthine], the “induction of the amount of melanin in relation to total proteins” value ([1]; 300 μM IBMX for 5 days, renewal at 4 days, vs solvent control (DMSO)) was 50%, the “total amount of melanin in the mixed spheroid” value ([1]; 300 μM IBMX for 5 days, compared with solvent control (DMSO), FIG. 8) was “increase in the total amount of melanin” and the “MITF expression, increased by a factor of” value [2] was 5. The “expression of MITF gene” value ([2]; FIG. 9) was “induced; also recorded: expression increased”, the “expression of PMEL gene” value ([2]; FIG. 9) was “induced; also recorded: increased” and the “expression of TYR gene” value ([2]; FIG. 9) was “induced; also recorded: increased”. The “expression of TYRP1 gene” value ([2]; FIG. 9) was “induced; also recorded: increased”.

With `CCCc1cc(=O)[nH]c(=S)[nH]1` [PTU, propylthiouracil] the “global amount of melanin in the mixed spheroid / melanin production” value ([1]; 500 μM PTU for 5 days, compared with solvent control (EtOH), FIG. 8) was “inhibits melanin production; also recorded: decrease in the global amount of melanin”.
